Test results: patent publication US12194071B2, “Methods and compositions with purified Bombyx mori cocoon silk peptide fiber and refined Buglossoides arvensis seed oil providing anti-inflammatory effects and neuroprotection for disease states” (Brain Health Holding LLC, priority 2019, dated 2025)

How the values were obtained:
TNF-α = assay: LPS-induced TNF-α production in RAW264.7 cells (ELISA); format: cell-based, mouse; conditions: for reduction in LPS-induced TNF-α production, RAW264.7 cells: omega-3/omega-6 study with DHA EE, EPA EE, SDA EE (toxic amount of SDA EE); for reduction in LPS-induced TNF-α production: study challenging RAW264.7 cells in 3 batches
Procedure: RAW264.7 cells were seeded in 96 well plates at a density of 20,000 cells/well. On day 2, the cells were serum starved for 24 h in DMEM. Then, the cells were pre-treated with 60 μg/ml of Peptylin® alone or in combination with 50 μM or 100 μM NeurXcel® EE diluted in DMEM. Appropriate vehicle controls have been included, i.e. 0.5% EtOH+1.2% H2O. On day 4 the cells were LPS-induced (500 ng/ml) for 1.5 h and the supernatants were collected. A WST-8 assay was performed to measure cell viability and the supernatants were used for an ELISA assay to measure TNF-α levels. All the experiments were carried out with 9 replicates (for control and LPS treated cells) or 24 replicates (for cells treated with NX and/or PT). A t-test was used to compare the media of TNF-α levels between the treatment of NX alone and in combination with PT.
3.4 Experimental procedure RAW264.7 cells were seeded in 96-well plates at a density of 20,000 cells/well in DMEM+10% FBS. The next day, the cells were washed once with DPBS and serum starved for 24 h in 150 μL of DMEM. Then, the cells were treated with 150 μL of 60 μg/ml of Peptylin® and 100 or 50 μM NeurXcel® EE that were used either alone or in combination. Appropriate vehicle controls were also included in the assay, i.e. 0.5% ethanol+1.2% H2O. After 24 h, the cells were incubated for 1.5 h with 10 μL of LPS (7500 ng/ml) to reach a final concentration of 500 ng/ml. After the incubation, the supernatants were collected and a WST-8 assay was carried out. CCK-8 reagent (WST-8) was diluted 1:10 in DMEM media and 100 μL were added to each well and the plate was incubated at 37° C. After 15 minutes the absorbance was measured at 450 nm using the Synergy II microplate reader. WST-8 is bioreduced by cellular dehydrogenases to an orange formazan product that is soluble in tissue culture medium. The amount of formazan produced is directly proportional to the number of living cells. The ELISA assay was performed following the manufacturer's instructions. The TNF-α levels produced under each condition were normalized to the corresponding vehicle control (with or without EtOH). All the experiments were carried out with 9 replicates (for control and LPS treated cells) or 24 replicates (for cells treated with NX and/or PT). […] Using Microsoft Excel the following formula was used to calculate the p-value: =T.TEST (array1, array2, tails, type), where array1 corresponds to the TNF-α values for one treatment, array2 corresponds to TNF-α values for the co-treatment, one-tail test has been considered and type is 2 (two sample equal variance t-test). A p-value of 0.05 was used as the cutoff for significance.
After the treatments, the supernatants were collected and an ELISA assay was performed. First, the standard curve was generated (FIG. 43).
The TNF-α standard was measured in 8 serial 1:2 dilutions ranging from 0-4000 pg/ml. TNF-α production was measured by ELISA. Control: cells maintained in DMEM; LPS: LPS-induced cells in DMEM+0.5% EtOH+1.2% H2O; PT: cells pre-treated with 60 μg/ml of Peptylin® for 24 h; 50 NX and 100 NX: cells treated with 50 or 100 μM NX for 24 h; 50NX+PT and 100NX+PT: cells pre-treated with 50 or 100 μM NX and 60 μg/ml PT for 24 h. Then the cells were induced with 500 ng/ml LPS for 1.5 h. The data represent the mean±SD of an experiment performed in nine replicates (for Cntr and LPS) or 24 replicates (for PT and NX treatments). NS: non-significant; *** p<0.001.

TNF-alpha = assay: LPS-induced TNF-alpha production in BV-2 cells; format: cell-based; conditions: compared with LPS controls
[1] = tested on: Reactive Oxygen Species (ROS) within SH-SY5Y neuroblastoma cells; assay: H2O2-induced Reactive Oxygen Species generation in SH-SY5Y cells (DCF-DA); format: cell-based, human; conditions: Example 12
Procedure: Reactive Oxygen Species (ROS) within cells can be quantified by indexing using the fluorescent probe 2′,7′-dichlorofluroescin diacetate (DCF-DA) (Sigma-Aldrich, USA). When oxidized to the reactive oxygen metabolite, the DCF-DA can be excited at 485 nm and releases fluorescence at 530 nm.
SH-SY5Y neuroblastoma cells were incubated with 100 μl of 10% 1-BS/MEM in a 5×10^4 cells/well 96-well plate and cultured 24 hours, as in Example 1. The 10% FBS/MEM was removed and 1% FBS/MEM added to the cells. Composition A, B, C, D, or E was administered, and then DCF-DA in keeping with the DCF-DA assay described above.
After 4 hours, a 0.25 uM solution of H2O2 (a toxicity-inducing substance) was administered. Incubation time was for 2 hours before fluorescence test. Subsequently, fluorescence was measured at 530 nm to assess the level of active oxygen production.
In Examples 8 and 9, SH-SY5Y cells were exposed in separate, parallel models to H2O2 and FeSO4 to induce controlled cell death, but instead of analyzing cell viability in the presence of various active compounds, reactive oxygen species (ROS) generation was measured in the presence of various formulations, following peer-reviewed published methods. […]
Reactive oxygen species generation induced by H2O2 was measured by incubation with a fluorescent probe 2′,7′-dichlorofluorescin diacetate (DCF-DA). […]

| SMILES | reduction in LPS-induced TNF-α production, RAW264.7 cells (TNF-α) | reduction in LPS-induced TNF-α production (TNF-α) | also measured |
| --- | --- | --- | --- |
| CC/C=C\C/C=C\C/C=C\C/C=C\C/C=C\CCCC(=O)OCC [EPA EE, eicosapentaenoic acid, ethyl ester] | 32% |  | reduction in LPS-induced TNF-alpha production, BV-2 cells (TNF-alpha; another study): 18%; reduction in LPS-induced TNF-alpha production, BV-2 cells (TNF-alpha; study in which EPA EE gave 25%): 25%; reduction in LPS-induced TNF-alpha production, BV-2 cells (TNF-alpha; third study): 27-33% |
| CCCCC/C=C\C/C=C\C/C=C\CCCCCCC(=O)OCC [DGLA EE] |  | 11-18% |  |
| CC(=O)N[C@@H](CS)C(=O)O [NAC, N-Acetyl-L-cysteine] |  |  | restoration of SH-SY5Y cells (positive control group) [1]: restored to normal levels |
| CC/C=C\C/C=C\C/C=C\C/C=C\C/C=C\C/C=C\CCC(=O)OCC [DHA EE] | 21-42% |  |  |
| CC/C=C\C/C=C\C/C=C\C/C=C\CCCCC(=O)OCC [SDA EE] | 35-71% | 16-24% |  |
